From US8653072B2, “Estrogen receptor ligands” (Karo Bio AB, priority 2008, dated 2014) come the findings set out here.

In general, IC50 refers to the concentration needed to halve the response being measured. Usually EC50 stands for the midpoint of the concentration-response curve.

Experiment [1] addresses T1, human ERβ (ERβ-LBD) (Homo sapiens, UniProt Q92731).
T1 construct: ERβ (ERβ-LBD, pET-N-AT #1, aa 255-530); made in house; host or cells: E. coli BL21 (DE3) pBirA
Nature of the experiment: Binding assay 1: estrogen receptor SPA binding assay (3H-E2 displacement), ERβ. As to conditions: read-out: binding affinity to the estrogen receptor β-subtype, IC50. The procedure: Binding Assay 1: Estrogen Receptor Binding Assay
The estrogen receptor ligand binding assays are designed as scintillation proximity assays (SPA), employing the use of tritiated estradiol (^3H-E2) and recombinant expressed biotinylated estrogen receptor binding domains. The binding domains of human ERα (ERα-LBD, pET-N-AT #1, aa 301-595) and ERβ (ERβ-LBD, pET-N-AT #1, aa 255-530) proteins are produced in E. coli ((BL21, (DE3), pBirA)) at 22 C in 2×LB medium supplemented with 50 uM biotin. After 3 h of IPTG induction (0.55 mM), cells are harvested by centrifugation at 7300×g for 15 min and cell pellets stored frozen in −20 C. Extraction of ERα and ERβ are performed using 5 g of cells suspended in 50 mL of extraction buffer (50 mM Trig, pH 8.0, 100 mM KCl, 4 mM EDTA, 4 mM DDT and 0.1 mM PMSF). The cell suspension is run twice through a Microfluidizer M-110L (Microfluidics) and centrifuged at 15,000×g for 60 min. The supernatant is aliquoted and stored in −70 C.
Dilute ERα-LBD or ERβ-LBD extracts in assay buffer (18 mM K2HPO4, 2 mM KH2PO4, 20 mM NasMoO4, 1 mM EDTA, 1 mM TCEP) 1:676 and 1:517 for alpha and beta respectively. The diluted receptor concentrations should be 900 fmol/L. Preincubate the extracts with streptavidin coated polyvinyltoluene SPA beads (RPNQ0007, GE Healthcare) at a concentration of 0.43 mg/mL for 1 hr at room temperature.
Test compounds are evaluated over a range of concentrations from 157 μM to 37.5 pM. The test compound stock solutions should be made in 100% DMSO at 5× of the final concentration desired for testing in the assay. The amount of DMSO in the test wells of the 384 well plate will be 20%. Add 18 μl aliquots of test compounds to the assay plates followed by 35 μl of the preincubated receptor/SPA bead mix and finally add 35 μl of 3 nM ^3H-E2. Cover the plates with a plastic sealer, centrifuge for 1 minute at 1000 rpm and equilibrate over night on a shaker at room temperature. The following morning, centrifuge the plates 5 minutes at 2000 rpm and measure on a plate scintillation counter e.g. a PerkinElmer Microbeta 1450 Trilux.
For compounds able to displace 3[H]-E2 from the receptor an IC50-value (the concentration required to inhibit 50% of the binding of 3[H]-E2) is determined by a non-linear four parameter logistic model; b=((bmax−bmin)/(1+(I/IC50)S))+bmin I is added concentration of binding inhibitor, IC50 is the concentration of inhibitor at half maximal binding and S is a slope factor. The Microbeta-instrument generates the mean cpm (counts per minute) value/minute and corrects for individual variations between the detectors thus generating corrected cpm values.

Experiment [2] deals with T2, human estrogen receptor beta (hERβ 530) (Homo sapiens, UniProt Q92731).
T2 construct: expressed in transfected cells
T2 sequence (Q92731 whole entry): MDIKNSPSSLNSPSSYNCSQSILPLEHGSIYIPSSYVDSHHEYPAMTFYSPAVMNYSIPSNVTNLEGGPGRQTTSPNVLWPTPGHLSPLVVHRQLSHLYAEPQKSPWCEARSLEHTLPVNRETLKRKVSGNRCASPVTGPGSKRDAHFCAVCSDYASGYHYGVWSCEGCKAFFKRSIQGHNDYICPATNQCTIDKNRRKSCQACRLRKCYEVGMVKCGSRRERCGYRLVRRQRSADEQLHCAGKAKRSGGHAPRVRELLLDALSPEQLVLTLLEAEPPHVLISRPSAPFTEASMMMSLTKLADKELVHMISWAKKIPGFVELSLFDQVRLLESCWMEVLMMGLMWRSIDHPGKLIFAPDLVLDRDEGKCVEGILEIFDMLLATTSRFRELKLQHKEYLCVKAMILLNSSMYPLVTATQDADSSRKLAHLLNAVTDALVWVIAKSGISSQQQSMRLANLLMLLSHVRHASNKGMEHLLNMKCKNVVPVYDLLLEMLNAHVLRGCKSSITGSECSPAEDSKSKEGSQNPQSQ
Nature of the experiment: Transactivation assay 2: HEK293 cells stably transfected with pERE2-ALP and human estrogen receptor beta. The settings on record: read-out: potency at the estrogen receptor β-subtype, EC50. Type of experiment: cell-based. The procedure: Transactivation Assay 2: Transactivation Assay in Human Embryonic Kidney 293 Cells Stably Transfected with pERE2-ALP and Human Estrogen Receptor Beta
Generation of stable HEK293 cell lines (CRL-1573; American Type Culture Collection) expressing the reporter vector pERE2-ALP and human estrogen receptor beta (hERβ 530) have been described (Mol Pharmacol 1998, 54, 105-112; Endocrinology 2002, 143, 1558-1561),
The cells were seeded in 384-well plates at 12 500 cells per well in Ham's F12 Coon's modification (without phenol red) with 10% dextran-coated charcoal treated (DCC) fetal bovine serum (FBS), 2 mM L-glutamine and 50 μg/ml gentamicin. After 24 h incubation (37° C., 5% CO2) the seeding medium was discarded and replaced with 20 μl Ham's F12 Coon's modification (without phenol red) with 1.5 DCC-FCS, 2 mM L-glutamine and supplemented with 100 U/ml penicillin and 100 μg/ml streptomycin. The selected compounds were added to the wells in 12 concentrations ranging from […] to 33 μM. The compounds were dissolved in 100% dimethylsulfoxide (DMSO) and the final concentration of DMSO in the assay was 0.1%. After 72 h incubation (37° C., 5% CO2) the medium was assayed for ALP activity by a chemiluminescence assay; a 10 μl aliquot of the conditioned medium was mixed with 100 μl assay buffer (0.1 M diethanolamine, 1 mM MgCl2) and 0.5 mM disodium 3-(4-methoxyspiro 1,2-dioxetane-3,2′-(5′-chloro)-tricyclo[3.3.1.13,7]decan-4-yl)phenyl phosphate (CSPD) (Tropix, Applied Biosystems) and incubated for 20 min at 37° C. and 15 min at room temperature before measurement of the chemiluminescent signal (one second per well) in a Wallac Microbeta Trilux 1450-028 (PerkinElmer). The ALP activity expressed in LCPS is directly proportional to the level of ALP expressed by the cells. The half maximal effective concentrations of the test compounds (EC50) were calculated from the curves fitted to the concentration-response data with a four parameter logistic model in XLfit software version 2.0 (IDBS) or later.

T1 sequence (Q92731 255-530): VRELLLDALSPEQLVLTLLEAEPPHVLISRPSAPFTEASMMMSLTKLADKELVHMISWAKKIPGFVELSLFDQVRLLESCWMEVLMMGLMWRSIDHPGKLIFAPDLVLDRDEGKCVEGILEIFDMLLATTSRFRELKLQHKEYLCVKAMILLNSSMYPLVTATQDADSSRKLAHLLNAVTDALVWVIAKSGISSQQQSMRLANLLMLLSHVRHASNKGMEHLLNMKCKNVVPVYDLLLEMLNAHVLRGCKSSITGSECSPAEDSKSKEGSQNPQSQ

For `Cc1ccc(C)n1-c1c(/C(N)=N/O)c2ccccc2n1-c1ccc(O)cc1` [Example 194, (Z)-2-(2,5-dimethyl-1H-pyrrol-1-yl)-N′-hydroxy-1-(4-hydroxyphenyl)-1H-indole-3-carboximidamide], the concentration for half-maximal inhibition (IC50) in experiment [1] lay within 1 to 200 nM. Besides, the EC50 in experiment [2] is 1 to 50 nM.
Regarding `C/C=C(/C)c1c(/C(N)=N/O)c2ccccc2n1-c1ccc(O)cc1` [Example 191, (Z)-2-((Z)-but-2-en-2-yl)-N′-hydroxy-1-(4-hydroxyphenyl)-1H-indole-3-carboximidamide], the IC50 in experiment [1] was in the range of 1 to 200 nM. In experiment [2], the EC50 is 1 to 50 nM.
For the compound `C/C=C\c1c(C#N)c2ccccc2n1-c1ccc(O)cc1` [Example 68, 1-(4-Hydroxy-phenyl)-2-((Z)-propenyl)-1H-indole-3-carbonitrile], the IC50 in experiment [1] was 1 to 200 nM. In addition, the EC50 in experiment [2] lay within 1 to 50 nM.
In the case of `Cc1noc(C)c1-c1c(/C(N)=N/O)c2ccccc2n1-c1ccc(O)cc1` [Example 11, (Z)-2-(3,5-dimethylisoxazol-4-yl)-N′-hydroxy-1-(4-hydroxyphenyl)-1H-indole-3-carboximidamide], in experiment [1], the IC50 is 1 to 200 nM. Also, the EC50 in experiment [2] was 1 to 50 nM.
For the compound `CC(C)=Cc1c(C#N)c2ccccc2n1-c1ccc(O)cc1` [Example 39, 2-(Isobut-1-enyl)-1-(4-hydroxyphenyl)-1H-indole-3-carbonitrile], the IC50 in experiment [1] was in the range of 1 to 200 nM. For the same compound, in experiment [2], the EC50 fell in the range of 1 to 50 nM.
In the same order, the values of `C=C(C)c1c(-c2ccccc2)n(-c2ccc(O)cc2)c2ccccc12` [Example 163, 4-(3-Isopropenyl-2-phenyl-indol-1-yl)-phenol] are 1 to 200 nM and 1 to 50 nM.
`CC(C)=Cc1c(C#N)c2cc(F)ccc2n1-c1ccc(O)cc1` [Example 220, 5-Fluoro-1-(4-hydroxy-penyl)-2-(2-methyl-prop-1-enyl)-1H-indole-3-carbonitrile]: the IC50 in experiment [1] was 1 to 200 nM. For the same compound, in experiment [2], the EC50 fell in the range of 1 to 50 nM.
Turning to `Cc1cccn1-c1c(/C(N)=N/O)c2ccccc2n1-c1ccc(O)cc1` [Example 188, (Z)-N′-hydroxy-1-(4-hydroxyphenyl)-2-(2-methyl-1H-pyrrol-1-yl)-1H-indole-3-carboximidamide], the IC50 in experiment [1] is 1 to 200 nM. Moreover, in experiment [2], the EC50 is 1 to 50 nM.
In the same order, the values of `CC(C)=Cc1c(/C(N)=N/O)c2cc(F)ccc2n1-c1ccc(O)cc1` [Example 223, (Z)-5-fluoro-N′-hydroxy-1-(4-hydroxyphenyl)-2-(2-methylprop-1-enyl)-1H-indole-3-carboximidamide] are 1 to 200 nM and 1 to 50 nM.
Regarding `Cc1noc(C)c1-c1c(-c2ccccc2)c2ccccc2n1-c1ccc(O)cc1` [Example 42, 4-(2-(3,5-dimethylisoxazol-4-yl)-3-phenyl-1H-indol-1-yl)phenol], in experiment [1], the IC50 was in the range of 1 to 200 nM. In experiment [2], the EC50 was in the range of 1 to 50 nM.
Consider `Cc1noc(C)c1-c1c(C(N)=NO)c2ccccc2n1-c1ccc(O)cc1F` [Example 235, (Z)-2-(3,5-dimethylisoxazol-4-yl)-1-(2-fluoro-4-hydroxyphenyl)-N′-hydroxy-21H-indole-3-carboximidamide], for which the IC50 in experiment [1] lay in the range of 1 to 200 nM. The concentration for a half-maximal effect (EC50) in experiment [2] is 1 to 50 nM.
On to `Cc1noc(C)c1-c1c(/C(N)=N/O)c2cc(F)ccc2n1-c1ccc(O)cc1` [Example 221, (Z)-2-(3,5-dimethylisoxazol-4-yl)-5-fluoro-N′-hydroxy-1-(4-hydroxyphenyl)-1H-indole-3-carboximidamide], for which, in experiment [1], the IC50 fell in the range of 1 to 200 nM. In experiment [2], the EC50 lay within 1 to 50 nM.
